Reference: patent US6949529B2, “Compositions containing lysophosphotidic acids which inhibit apoptosis and uses thereof” (Sky High, LLC, priority 1997, dated 2005)

What was measured:
[1] = tested on: C3H/10T½ cells; test: Effect of proteins on anti-apoptotic activity of soy LPA, C3H/10T½ cell assay; type: cell-based; conditions: for Protein + 10 μg/mL Soy LPA, percent cells saved from apoptosis: 1:10 soy-LPA to protein (weight:weight), 24 h serum deprivation; for enhancement of the anti-apoptotic activity of LPA: protein added together with soy-LPA
Procedure: Soy derived LPA (soy-LPA) (Avanti® Polar Lipids, Inc., Alabaster, Ala.) was stored in an organic solution and was dried immediately prior to assay using a Speed Vac (Savant Instruments, Hicksville, N.Y.). Tested proteins were resuspended at 10 mg/mL in a bicarbonate buffered saline/EDTA solution (50 mM NH4HCO3, 104 mM NaCl, 250 μM EDTA) prior to being added to dried soy-LPA at a 1:10 soy-LPA to protein (weight:weight) ratio. The mixture was then sonicated for 5 minutes using a high power 80 Watt sonication bath (Laboratory Supplies Co., Hicksville, N.Y.). Following sonication, concentrated LPA/protein mixtures were left standing for 15 minutes at room temperature prior to dilution in cell culture assay media.
The effect of various proteins on the ability of LPA to protect serum-starved cells from apoptotic death was measured using the C3H/10T½ cell assay, performed as described in Example 2, above. Log phase cells were seeded in 60 mm Petri dishes at 175-350 cells per cm^2 and maintained in Basal Medium Eagle (BME) supplemented with 10% fetal calf serum (Hyclone, Logan, Utah). At time zero, serum containing media was replaced with sterile filtered BME containing the LPA/protein mixture to be tested. After 24 hours of treatment, serum deprived release (SDR) cells (the apoptotic cell population) and adherent (ADH) cells were separated and counted using an electronic cell counter (Coulter Corporation, Hialea, Fla.). SDR cells were counted with the lower threshold setting at 6.3 μm and were defined as the apoptotic cells dying in response to cultivation in serum-free-media. Approximately 95% of the SDR cells are confirmed to be apoptotic as previously shown by size, ultrastructure and DNA fragmentation analysis. Adherent cells were removed by treatment with a Hanks' balanced salt solution containing 0.05% trypsin and 0.53 mM EDTA and were counted with the lower threshold setting at 11.01 μm. All samples were tested in triplicate and serum-deprived controls (BME only) were assayed at both the beginning and end of each experiment.
The effects of various proteins alone or in combination with LPA are expressed as percent cells saved from apoptosis. When C3H10T½ cells were treated with 10 μg/mL soy LPA without protein, 8.0% of the cells were saved. The degree of protection from apoptosis afforded by protein alone, added to the medium at a concentration of 0.1% (wt/vol.), varied from 0.9% to 27.7% of cells saved from apoptosis. An unusually high percentage of cells were protected from serum-starvation-induced apoptosis by casein. This value may be artificially high, as casein preparations have been known to contain growth factors, including insulin-like growth factors (IGF) IGF1 and IGF2. IGF2 is a mitogen that can mask the serum deprivation-induced apoptotic response in these cells.

[2] = tested on: C3H/10T½ cells; test: C3H/10T½ serum deprivation anti-apoptotic activity assay; type: cell-based; conditions: for Maximum effect relative to 18:1 LPA: LPA alone, 24 h serum deprivation, 18:1 LPA = 100%; for activity compared with lysophosphatidic acid: summary of Table 3
Excerpt: In order to determine the apoptotic activity of the claimed invention, the following method of analysis was used. The-cell assay is described in detail in U.S. Pat. Nos. 5,637,486, 5,620,888, and 5,681,703, and Tomei et al. (1993) Proc Natl. Acad. Sci. 90:853-857. Briefly, mouse fibroblast C3H/10T½ cells (clone 8) were obtained from ATCC (Rockville, Md.) and were maintained in exponential growth phase in which the cell cycle is randomly distributed and no cells are arrested in G0, and in quiescence. Exponential growth phase was assured by seeding at 2000 cells per 1 ml (5 ml for a 60 mm culture plate) five days prior to the beginning of the experiment. Assays were performed on cells only up to passage 15. At T=0, cultures were transferred to serum-free medium, as an apoptosis stimulus, and seed extracts were added. Controls included 10-7 and 5×10^-8 M 12-O-tetradecanoyl phorbol-13-acetate (TPA) to ensure the responsiveness of the cell culture. The samples were added to serum free medium and sterile filtered prior to addition to the cultures. Assays were performed in triplicate or quadruplicate. Analyses of the cell responses were made between 18 and 28 hours of serum deprivation. Two assays were performed on each cell culture plate consisting of differential cell counts.
1. All non-adherent or loosely adherent cells were removed from the culture dish and counted by appropriate techniques, typically counting by electronic particle counting instrument. These are the apoptotic cells, the serum deprived released cells (SDR), released by the action of cultivation in serum-free medium. Approximately 95% of these released cells are apoptotic as shown by both ultrastructure analysis and DNA fragmentation analysis.
2. The remaining adherent cells (ADH) were exposed to a buffered, typically pH 7.3, balanced salt solution such as Hanks Balanced Salt Solution without calcium and magnesium salts containing 0.05% trypsin and 0.53 mM ethylene diaminetetraacetic acid (EDTA). Each culture was incubated at either room temperature or 37° C. on a rocking platform to ensure uniform distribution of the trypsin reagent over the culture surface. After a standardized period of time, typically 10 minutes, the released cells were removed from each culture dish and measured by the same means as described above, typically electronic particle counting. This ADH cell count is comprised of both trypsin resistant and trypsin sensitive cells as described in U.S. Pat. Nos. 5,637,486, 5,620,888, and 5,681,703.
Anti-apoptotic activity is expressed in the following examples as the calculated concentration of material (μg/ml of media) required to save 50% of the cells released on serum free treatment.
The ability of 18:1-LPA and other LPAs to protect serum-starved cells from apoptotic death was measured using the C3H/10T½ cell assay, performed as described in Example 2. The effect of various compounds on the ability of lysophosphatidic acid to protect serum-starved cells from apoptotic death was also measured. Log phase cells were seeded in 60 mm Petri dishes at 175-350 cells per cm2 and maintained in Basal Medium Eagle (BME) supplemented with 10% Heat Inactivated Fetal Bovine Serum (HIFBS). On day 3 the cells were given fresh media. Treatment began on day 5 when the media containing serum was removed and replaced with the LPA mixture to be tested. After 24 hours of treatment, day 6, serum deprived released (SDR) cells (the apoptotic cell population) and adherent (ADH) cells were separated and counted using an electronic cell counter Coulter Corporation, Hialea, Fla.). SDR cells were counted with the lower threshold setting at 6.3 μm and were defined as the apoptotic cells dying in response to cultivation in serum free media. Approximately 95% of the SDR cells were confirmed to be apoptotic as previously shown by size, ultrastructure and DNA fragmentation analysis. […]

[3] = Electrophoresis radiobinding assay on native polyacrylamide gel; type: binding; conditions: 1 nM labeled 18:1-LPA/45 μg protein, 37° C., 60 minutes
Procedure: Electrophoresis radiobinding assay. Proteins were analyzed on native polyacrylamide gels following incubation with ^3H-labeled 18:1-LPA. ^3H-labeled lysophosphatidic acid (1-oleyl) (DuPont NEN Products, Boston, Mass.) was added to tested proteins at 1 nM labeled 18:1-LPA/45 μg protein. Mixtures were incubated in a bicarbonate buffered saline/EDTA solution at 37° C. for 60 minutes. Incubated samples were mixed with native gel sample buffer (312 mM Tris pH 6.8, 50% glycerol, 0.05% bromophenol blue) and loaded entirely onto an 8% discontinuous native polyacrylamide gel. Following electrophoresis, proteins were fixed into the gels using an aqueous solution consisting of glacial acetic acid, 10% (vol/vol) and methanol 30% (vol./vol.) solution. Fixed gels were then incubated for 60 minutes in autoradiography enhancer (EN^3HANCE, DuPont NEN Products, Boston, Mass.), and dried onto 3M chromatography paper (Whatman, Clifton, N.J.) and exposed to autoradiography film (X-Omat, Kodak, Rochester, N.Y.) for 72 hours at −80° C.

[4] = Size shift assay on Superdex S75 column; type: binding; conditions: soy LPA with 0.5 μCi ^3H-labeled 18:1-LPA, with test protein
Procedure: Size shift assay. Size analysis of LPA both with and without protein was performed using a Superdex® S75 column (Pharmacia Biotech, Uppsala, Sweden). Soy LPA was combined in a chloroform solution with 0.5 μCi ^3H-labeled 18:1-LPA (DuPont NEN Products, Boston, Mass.), dried under vacuum and resuspended by sonication in a buffered solution (50 mM ammonium bicarbonate, 154 mM sodium chloride, pH 8.0) in the presence or absence of test protein. The ammonium bicarbonate/sodium chloride solution was used as the mobile phase at a flow rate of 1 ml/min. One-minute fractions were collected for 30 minutes following sample injection. Fractions were counted in scintillant solution using a liquid scintillation counter (Beckman Instruments, Irvine, Calif.). Calibration was performed using a standard solution containing purified proteins (BioRad, Hercules, Calif.).

[5] = compounds exhibiting toxicity, Table 3 column Concentration for Max Effect

Myelin Basic Protein
Protein + 10 μg/mL Soy LPA, percent cells saved from apoptosis [1]: 17.0%
enhancement of the anti-apoptotic activity of LPA [1]: did not enhance

Dimethyl 3-amino-3-N-oleoyl-propyl phosphate [Compound 53]
Maximum effect relative to 18:1 LPA [2]: Toxic
lowest concentration at which cytotoxic effects were observed [2, 5]: 100 µM

CCCCCCCC/C=C\CCCCCCCCOCC(COP(O)(O)=S)OC (racemic) [Compound 66, 3-O-Oleyl-2-O-methyl-rac-glycero-1-thiophosphate]
activity compared with lysophosphatidic acid [2]: significantly higher than lysophosphatidic acid

CCCCCCCC/C=C\CCCCCCCC(=O)NCCOP(=O)(OC)OC [Compound 59, Dimethyl 2-amino-2-N-oleoyl-ethyl phosphate]
Maximum effect relative to 18:1 LPA [2]: Toxic
lowest concentration at which cytotoxic effects were observed [2, 5]: 30 µM

Phosphatidylserine [Phosphatidylserine (PS), reference compound]
toxicity to serum-deprived cells ([2]; PS alone (FIG. 2)): slightly toxic

CCCCCCCCCCCCCCOCC1CO1 (stereo not shown) [Compound 8, 1-O-Tetradecyl-glycidol]
Maximum effect relative to 18:1 LPA [2]: Toxic
lowest concentration at which cytotoxic effects were observed [2, 5]: 30 µM

Albumin (Fatty Acid Depleted): fatty acid depleted (FAD) bovine serum albumin (BSA)
Protein + 10 μg/mL Soy LPA, percent cells saved from apoptosis [1]: 58.7%
Detectable Acrylamide Gel ^3H LPA Binding (+/−) [3]: bind to 18:1-LPA
3H-LPA Size Shift Analysis (+/−) [4]: most of the LPA was bound to BSA

CCCCCCCCCCCCCCOCC(O)COP(=O)(O)O (racemic) [Compound 4, 3-O-Tetradecyl-rac-glycero-1-phosphate]
Maximum effect relative to 18:1 LPA [2]: Toxic
lowest concentration at which cytotoxic effects were observed ([2]; mouse, 24 h): 10 µM

CCCCCCCC/C=C\CCCCCCCCOC(=O)C(COP(O)(O)=S)OC (racemic) [Compound 78, Oleyl 1-thiophosphoryl-2-O-methyl-rac-glycerate]
activity compared with lysophosphatidic acid [2]: significantly higher than lysophosphatidic acid

Cytochrome C: source bovine heart
Protein + 10 μg/mL Soy LPA, percent cells saved from apoptosis [1]: 54.6%
3H-LPA Size Shift Analysis (+/−) [4]: LPA does not bind to this protein

CCCCCCCCCCCCCCOCC(O)COP(=O)(OC)OC (racemic) [Compound 3, Dimethyl 3-O-tetradecyl-rac-glycero-1-phosphate]
Maximum effect relative to 18:1 LPA [2]: Toxic
lowest concentration at which cytotoxic effects were observed [2, 5]: 30 µM

CCCCCCCC/C=C\CCCCCCCC(=O)OCC(COP(O)(O)=S)OC (racemic) [Compound 48, 3-O-Oleoyl-2-O-methyl-rac-glycero-1-thiophosphate]
activity compared with lysophosphatidic acid [2]: significantly higher than lysophosphatidic acid

Casein
Protein + 10 μg/mL Soy LPA, percent cells saved from apoptosis [1]: 84.3%

Acyl Carrier Protein: source E. coli
Protein + 10 μg/mL Soy LPA, percent cells saved from apoptosis [1]: 36.2%
Detectable Acrylamide Gel ^3H LPA Binding (+/−) [3]: did not yield detectable bands

B1: Ovalbumin: source chicken egg (protein, UniProt P01012 2-386, looked up)
Ovalbumin: GSIGAASMEFCFDVFKELKVHHANENIFYCPIAIMSALAMVYLGAKDSTRTQINKVVRFDKLPGFGDSIEAQCGTSVNVHSSLRDILNQITKPNDVYSFSLASRLYAEERYPILPEYLQCVKELYRGGLEPINFQTAADQARELINSWVESQTNGIIRNVLQPSSVDSQTAMVLVNAIVFKGLWEKAFKDEDTQAMPFRVTEQESKPVQMMYQIGLFRVASMASEKMKILELPFASGTMSMLVLLPDEVSGLEQLESIINFEKLTEWTSSNVMEERKIKVYLPRMKMEEKYNLTSVLMAMGITDVFSSSANLSGISSAESLKISQAVHAAHAEINEAGREVVGSAEAGVDAASVSEEFRADHPFLFCIKHIATNAVLFFGRCVSP
Protein + 10 μg/mL Soy LPA, percent cells saved from apoptosis [1]: 15.1%
enhancement of the anti-apoptotic activity of LPA [1]: did not enhance
Detectable Acrylamide Gel ^3H LPA Binding (+/−) [3]: detectable band

B2: Myoglobin: source horse heart (protein, UniProt P68082 2-154, looked up)
Myoglobin: GLSDGEWQQVLNVWGKVEADIAGHGQEVLIRLFTGHPETLEKFDKFKHLKTEAEMKASEDLKKHGTVVLTALGGILKKKGHHEAELKPLAQSHATKHKIPIKYLEFISDAIIHVLHSKHPGDFGADAQGAMTKALELFRNDIAAKYKELGFQG
Protein + 10 μg/mL Soy LPA, percent cells saved from apoptosis [1]: 27.8%
